Reference: patent US9249159B2, “Composition for treating hepatitis C virus, regulating phosphorylation of replicase” (Industry-Academic Cooperation Foundation, Yonsei University, priority 2011, dated 2016)

What was measured:
[1] = test system: genotype 1b HCV subgenomic replicon (R-1 cell line); assay: HCV replication (HCV RNA by real-time RT-PCR, NS5B protein by Western blot) in R-1 subgenomic replicon cells; assay type: cell-based, hepatitis C virus genotype 1b; settings: for decrease of HCV RNA titers with respect to DMSO control: R-1 cell line, 20 μM, 48 hours
Text: In order to check a PRK2 phosphorylation inhibition effect of the novel inhibitors obtained in Example 1, R-1 cell line harboring HCV subgenomic replicons was used.
The R-1 cell line was comprised of cis-acting RNA elements of 5′ and 3′-end untranslated regions (UTR) essential for replication of HCV RNA, a selection marker inserted to select a replicated RNA into a portion from which a structural protein coding site was removed, and a non-structural protein (NS3-NS5B)-coding gene required for replication. In the replicon, the selection marker was expressed by the HCV 5′-UTR and internal ribosome entry site (IRES) as a part of a coding gene of a core protein as a structural protein and capsid protein, and HCV non-structural proteins were expressed by IRES of EMCV. In order to obtain replicon cells, a HCV subgenomic replicon RNA was obtained by means of in vitro transcription by using a T7 RNA polymerase, free ribonucleotide was removed by using a spin column, and introduced into a hepatocellular carcinoma cell line by electroporation. In the presence of G418, a stable cell line, i.e. a cell line showing a resistance to G418 through replication of HCV subgenome, was obtained. Expression of the HCV non-structural proteins in this cell line was analyzed by Western blot to confirm that replication was being carried out, and the R-1 cell line was constructed. It was observed that an HCV RNA copy number was about 10^7 copies/mL by a quantitative real-time PCR analysis using a TaqMan probe. The R-1 cell line was a cell line in which HCV RNA replication was being carried out, and thus it could be used to evaluate an HCV replication inhibition effect of a PRK2 activity inhibitor.
Then, after the R-1 cell line was treated with each of 5 screened PRK2 inhibitors, HA1077 currently and clinically used as a PRK2 activity inhibitor, and Y27632 having a PRK2 activity inhibition effect at a final concentration of 20 μM for 48 hours, levels of HCV NS5B protein and HCV RNA in cell lysates (50 μg) were analyzed by Western blot and real-time RT-PCR.
(§1) To do so, after the two cell lines were treated with the compound #17 at higher concentrations (60 and 100 μM) than 20 μM for 48 hours, an HCV RNA genome level was checked by a real-time RT-PCR analysis. A value was a mean±standard deviation (SD) of three independent measurements. HCV RNA titer was quantified by real-time PCR analysis. Three independent experiments were performed in triplicate.
5 derivatives (#18 to #22: refer to FIG. 2) were produced based on the inhibitor #17 showing the best effect. After the R-1 cell line was treated with each of these inhibitors or HA1077 and Y27632 at a final concentration of 20 μM for 48 hours, an HCV RNA genome level was checked by a real-time RT-PCR analysis and expressed in % with respect to a control treated with DSMO. Three independent experiments were conducted repeatedly three times. Data were expressed by mean±SD of the three experiments.
(§2) Total RNA was extracted from R-1 or HCV (JFH1)-infected cells using TRIzol LS reagent (Invitrogen, Carlsbad, Calif., USA) and purified according to the manufacturer's instructions. HCV RNA levels were quantified by RT-PCR using a primer pair and TaqMan probe targeting a region within the HCV 5′-UTR as described previously. Cellular glyceraldehyde-3-phosphate dehydrogenase was used as an internal control. Assays were performed using the DyNAmo Probe 2-step qRT-PCR Kit (Finnzymes, Espoo, Finland) and a CHROMO4 continuous fluorescence detector (Bio-Rad, Hercules, Calif., USA), according to the manufacturer's instructions.
(§3) Therefore, anti-HCV activity of 17-DMAG in the R-1 cell was tested at a level lower than 50 nM. To do so, the R-1 cell was treated with a vehicle (0.25% DMSO) or 17-DMAG for 72 hours and the cell lysates (50 μg) and antibodies specific to the proteins were immunoblotted to measure levels of the proteins. An anti-α-tubulin antibody (lower end panel) was used as an internal loading control. […]

HCV NS5B = assay: NS5B phosphorylation in Huh7TR-NS cell (anti-p-Ser immunoprecipitation, anti-NS5B immunoblot); assay type: cell-based, hepatitis C virus; settings: 17-DMAG 50 nM or HA1077 20 μM, 48 hours
Description: The human hepatoma stable cell lines Huh7TR-4 and Huh7TR-NS [17], which express the tetracycline repressor and the HCV NS proteins (NS3-NS5) in a tetracycline-inducible manner, respectively, were maintained in the presence of blasticidin S (10 μg/mlL and Zeocine (100 μg/mL). NS protein expression in Huh7TR-NS was induced by addition of 1 μg/mL tetracycline for 24 h. The Huh7 cell-derived cell line R-1, supporting stable, autonomous replication of genotype 1b HCV subgenomic replicon RNA, was described previously. 17-DMAG, the PRK2 inhibitor, HA1077, and the inhibitor of phosphatidylinositol 3-kinase (PI3K), LY294002, were obtained from Sigma-Aldrich (St. Louis, Mo., USA) and Calbiochem Inc. (La Jolla, Calif., USA), and Biomol (Plymouth Meeting, Pa., USA), respectively. IFN-α was purchased from Sigma-Aldrich (1-4276).
For co-immunoprecipitation experiment, the cells were resuspended in lysis buffer A (100 mM Tris-HCl, pH 8.0, 150 mM NaCl, 1% Triton X-100, 10 mM NaF, 1 mM Na3VO4, 17.5 mM β-glycerophosphate) supplemented with an EDTA-free protease inhibitor cocktail (Roche Applied Science, Indianapolis, Ind., USA) and incubated on ice for 30 min. […]
Then, treatment with 17-DMAG (50 nM) or HA1077 (20 μM), a PRK2 inhibitor, was carried out for 48 hours. […] A case without treatment with an inhibitor was expressed as (−).

recombinant active PRK2 = recombinant active PRK2 (Homo sapiens, UniProt Q16513); assay: In vitro kinase assay: recombinant PRK2 phosphorylating HCV NS5B; assay type: biochemical; settings: gamma-32P ATP and 100 μM ATP, autoradiography
Description: Then, in order to test an HCV NS5B protein phosphorylation inhibition effect of the screened novel PRK2 inhibitor, in vitro kinase assay was carried out.
Using a recombinant active PRK2 and purified HCV NS5B protein as substrates, the screened inhibitors #11 and #17 were treated in the presence of gamma-^32P ATP and 100 μM ATP. The reaction mixture was separated by SDS-PAGE (8% gel), and a result thereof was checked by autoradiography.
Finally, PRK2 and HCV NS5B phosphorylation inhibition effects of the compounds #18, #19, #20, #21 and #22 as the derivatives of the compound #17 were analyzed through in vitro kinase assay.
A 1 μM recombinant PRK2 and 10 μM HCV NS5B were phosphorylated for 30 minutes in the presence of 10 μCi γ-^32P ATP and 100 μM ATP. The reaction mixture was separated by SDS-PAGE (8% gel), and a result thereof was checked by autoradiography.

PRK2 [2] = target: T1, PRK2 (Homo sapiens, UniProt Q16513); assay: PRK2 phosphorylation (Thr816) and PRK2 level in R-1 cells by Western blot; assay type: cell-based; settings: R-1 cell, 100 IU/ml, hourly for 6 hours
T1 construct: endogenous in cells; host or cells: R-1 (Huh7-derived HCV replicon cells) and Huh7
Description: After the R-1 cell line was treated with the PRK2 inhibitor at a final concentration of 10 or 20 μM for 48 hours, phosphorylation or not of Thr^816 residue essential for activity of PRK2 was analyzed by Western blot using a phospho-PRK2 antibody to measure an expression level of phosphorylated PRK2. Immunoblotting using an anti-α-tubulin antibody was carried out to check whether or not the same amount of protein was loaded.
Then, in order to check whether or not IFN-α affected a PDK1-PRK2 signaling pathway, the R-1 cell was treated with 100 IU/ml of IFN-α hourly for 6 hours. SDS-PAGE was carried out to the cell lysates, and immunoblotting was carried out. The immunoblotting with anti-α-tubulin antibody was used as an internal control for loading. A representative result from one of the three independent experiments showing a similar result was illustrated.

PDK1 = PDK1 level and activation in R-1 cell by immunoblotting; assay type: cell-based; settings: 100 IU/ml, hourly for 6 hours
Text: Total cell lysates from cells treated with inhibitors or IFN-α by using antibodies to PDK1, p-PDK1 (S241), PRK2, and p-PRK2 (T816) (products of Cell Signaling Technology, Inc., Beverly, Mass., USA) was used for immunoblotting. In order to detect PKC isoforms α, β, and γ, a polyclonal antibody to a consensus sequence present in three PKC (protein kinase C) isoforms α, β and γ (anti-pan-PKC; Zymed Laboratories, San Francisco, Calif., USA) was used. An anti-α-tubulin antibody (Oncogene Research Products, Cambridge, Mass., USA) was carried out in immunoblotting for checking whether or not the same amount of protein was loaded.
as §3, with “control. The levels of the proteins were measured by densitometric analysis of immunoblot, and the phosphorylated amounts and relative intensities calculated with respect to PDK1 and PDK2 were converted with respect to α-tubulin signals and then quantitated. As a result of three independent experiments showing similar results, a representative blot picture was illustrated.” for “control.”

PRK2 [3] = assay: PRK2 level in Huh7 cell by immunoblotting; assay type: cell-based; settings: 100 IU/ml IFN-α
[4] = test system: genotype 2a HCV (JFH1)-infected Huh7 cells; assay: HCV RNA level in Huh7 cells infected with HCV (JFH1); assay type: cell-based, hepatitis C virus genotype 2a; settings: JFH1-infected Huh7 cell, 100 IU/mL alone, 72 hours
Description: as §1
Full-length, infectious HCV RNA of the genotype 2a HCV clone JFH1 was prepared by in vitro transcription using the MEGAscript T7 kit (Ambion, Austin, Tex., USA) and electroporated into Huh7 cells as described previously. Briefly, at 72 h post electroporation, culture medium was collected, cleared by low-speed centrifugation, and passed through a 0.45-μm filter (Millipore, Billerica, Mass., USA) before being used for infection of Huh7 cells. Cells were infected with HCV at a multiplicity of infection of 0.3 by adsorption for 3 h with periodic rocking, then washed three times with phosphate-buffered saline (PBS) and maintained in complete DMEM. […]
as §2, with “Cellular glyceraldehyde-3-phosphate dehydrogenase was used as an internal control.” left out
In order to analyze whether or not 17-DMAG can inhibit replication in a cell infected with HCV, an experiment was carried out with the genotype 2a HCV infectious clone JFH1, which produces infectious virions in Huh7 or Huh7-derived cell lines. […] After 72 hours, total cellular RNA was extracted and HCV remaining in the infected cell was analyzed by quantitative RT-PCR.

recombinant active PRK2, sequence (Q16513 whole entry): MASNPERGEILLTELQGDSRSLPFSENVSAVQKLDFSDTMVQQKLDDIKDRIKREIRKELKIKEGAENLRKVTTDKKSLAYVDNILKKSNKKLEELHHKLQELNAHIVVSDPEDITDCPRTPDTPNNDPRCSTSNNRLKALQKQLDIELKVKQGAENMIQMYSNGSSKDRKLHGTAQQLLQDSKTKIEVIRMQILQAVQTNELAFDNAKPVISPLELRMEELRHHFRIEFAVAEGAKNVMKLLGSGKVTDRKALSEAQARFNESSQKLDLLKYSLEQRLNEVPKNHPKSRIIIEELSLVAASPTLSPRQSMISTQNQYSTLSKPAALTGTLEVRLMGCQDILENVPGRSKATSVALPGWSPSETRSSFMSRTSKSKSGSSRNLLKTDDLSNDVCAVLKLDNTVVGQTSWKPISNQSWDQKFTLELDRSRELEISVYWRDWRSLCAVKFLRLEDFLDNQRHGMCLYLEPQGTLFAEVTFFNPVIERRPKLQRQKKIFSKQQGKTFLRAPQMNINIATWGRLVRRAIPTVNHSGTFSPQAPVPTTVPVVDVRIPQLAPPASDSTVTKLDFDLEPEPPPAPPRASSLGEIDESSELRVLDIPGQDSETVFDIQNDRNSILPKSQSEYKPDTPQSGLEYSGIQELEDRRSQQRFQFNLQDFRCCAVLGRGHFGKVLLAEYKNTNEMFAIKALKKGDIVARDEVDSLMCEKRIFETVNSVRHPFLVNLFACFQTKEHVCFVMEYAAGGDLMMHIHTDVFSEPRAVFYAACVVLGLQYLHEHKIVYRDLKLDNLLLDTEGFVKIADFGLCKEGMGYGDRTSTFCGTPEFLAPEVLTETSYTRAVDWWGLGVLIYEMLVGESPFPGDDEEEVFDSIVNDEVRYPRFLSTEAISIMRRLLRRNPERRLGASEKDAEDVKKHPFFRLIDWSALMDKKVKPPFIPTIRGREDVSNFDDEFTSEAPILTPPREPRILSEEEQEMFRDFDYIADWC
T1 sequence (Q16513 whole entry): as above

## O=S(=O)(c1cccc2cnccc12)N1CCCNCC1 [HA1077]
[1]
  decrease of HCV RNA titers with respect to DMSO control: 40%
[1]; R-1 cell, HA1077 20 μM combined with IFN-α 100 IU/ml
  anti-HCV activity in combined treatment with IFN-α: anti-HCV activity of IFN-α was improved
HCV NS5B
  NS5B phosphorylation: also inhibited NS5B phosphorylation

## C[C@@H](N)[C@H]1CC[C@H](C(=O)Nc2ccncc2)CC1 [Y27632]
[1]
  decrease of HCV RNA titers with respect to DMSO control: 49%

## O=C(Nc1ccncc1)c1ccc[nH]c1=O [compound 20, 2-oxo-N-(4-pyridinyl)-1,2-dihydro-3-pyridinecarboxamide]
[1]
  decrease of HCV RNA titers with respect to DMSO control: approximately 60%

## O=C(Nc1ccc2[nH]cnc2c1)C1CCCCC1 [compound #11, cyclohexanecarboxylic acid (1H-benzoimidazole-5-yl)-amide]
Recombinant active PRK2
  inhibition of in vitro phosphorylation of HCV NS5B protein: inhibit phosphorylation of HCV NS5B protein

## IFN-α
PRK2 [2]
  p-PRK2 content or PRK2 content: any significant change in p-PRK2 content or PRK2 content was not observed
PDK1
  activation of PDK1: any change in activation of PDK1 in the treated cell was not observed
PRK2 [3]
  PDK1 and PRK2 contents and activation: A similar result was observed
[4]
  inhibition of virus RNA replication: about 90%
[1]; R-1 cell, 100 IU/ml alone, 72 hours
  decrease of content of HCV RNA: approximately 80%
